From ChEMBL document CHEMBL4043148, “Nitro-substituted tetrahydroindolizines and homologs: Design, kinetics, and mechanism of α-glucosidase inhibition” (Bioorg Med Chem Lett, 2017)
pIC50, pKi: −log10 of the molar value. Activity calls are given as the source filed them. No cut-off for these calls is given here.

How the values were obtained:
[1] = Inhibition of Saccharomyces cerevisiae alpha-glucosidase using 4-nitrophenyl alpha-D-glucopyranoside as substrate preincubated for 5 mins followed by substrate addition measured after 10 mins
[2] = test system: Saccharomyces cerevisiae; assay: Inhibition of Saccharomyces cerevisiae alpha-glucosidase using 4-nitrophenyl alpha-D-glucopyranoside as substrate at 150 uM preincubated for 5 mins followed by substrate addition measured after 10 mins
[3] = test system: Saccharomyces cerevisiae; assay: Mixed inhibition of Saccharomyces cerevisiae alpha-glucosidase assessed as Vmax for substrate up to 10 uM in presence of varying concentrations of 4-nitrophenyl alpha-D-glucopyranoside after 2 mins by Lineweaver-Burk plot analysis (reference value: 23.8 nmol/min/ml)
[4] = test system: Saccharomyces cerevisiae; assay: Mixed inhibition of Saccharomyces cerevisiae alpha-glucosidase assessed as free-enzyme inhibition constant up to 12.5 uM using 4-nitrophenyl alpha-D-glucopyranoside as substrate after 2 mins by Lineweaver-Burk plot analysis
[5] = test system: Saccharomyces cerevisiae; assay: Mixed inhibition of Saccharomyces cerevisiae alpha-glucosidase assessed as Km for substrate up to 10 uM in presence of varying concentrations of 4-nitrophenyl alpha-D-glucopyranoside after 2 mins by Lineweaver-Burk plot analysis (reference value: 0.092 mM)
[6] = test system: Saccharomyces cerevisiae; assay: Potency index, ratio of 1-deoxynojirimycin IC50 to compound IC50 for Saccharomyces cerevisiae alpha-glucosidase
[7] = test system: Saccharomyces cerevisiae; assay: Reversible inhibition of Saccharomyces cerevisiae alpha-glucosidase up to 15 uM using 4-nitrophenyl alpha-D-glucopyranoside as substrate after 2 mins by Lineweaver-Burk plot analysis
[8] = Mixed inhibition of Saccharomyces cerevisiae alpha-glucosidase assessed as enzyme inhibitor substrate constant up to 12.5 uM using 4-nitrophenyl alpha-D-glucopyranoside as substrate after 2 mins by Lineweaver-Burk plot analysis
[9] = test system: Saccharomyces cerevisiae; assay: Inhibition of Saccharomyces cerevisiae alpha-glucosidase using 4-nitrophenyl alpha-D-glucopyranoside as substrate at 300 uM preincubated for 5 mins followed by substrate addition measured after 10 mins

In the case of `CS(=O)(=O)Cc1c([N+](=O)[O-])cn2c1CCC2`, the pIC50 [1] was less than 3.82 and the inhibition [2] was 46%.
`COC(=O)C(c1c([N+](=O)[O-])cn2c1CCCC2)S(=O)(=O)Cc1ccc(C)cc1` (stereo not drawn) showed a pIC50 [1] of 4.19.
`O=[N+]([O-])c1cn2c(c1CS(=O)(=O)Cc1ccccc1)CCCC2` showed a pIC50 [1] of 4.54.
In the case of `COC(=O)C(c1c([N+](=O)[O-])cn2c1CCCC2)S(C)(=O)=O` (stereo not drawn), the Vmax [3] was 10.7 nmol/min/mL, the pIC50 [1] was 5.10 and the fKi [4] was 3.6 µM. The Km [5] was 140 µM, the Ratio IC50 [6] was 25 and the inhibition [7] was “Active”. For the same molecule, the pKi [8] was 5.12.
`CS(=O)(=O)Cc1c([N+](=O)[O-])cn2c1CCCC2` gave a pIC50 [1] of 4.14.
`COC(=O)C(c1c([N+](=O)[O-])cn2c1CCC2)S(C)(=O)=O` (stereo not drawn) gave a pIC50 [1] of 4.32.
With `COC(=O)C(c1c([N+](=O)[O-])cn2c1CCCC2)S(=O)(=O)Cc1ccccc1` (stereo not drawn) the pIC50 [1] was 4.70.
For `OC[C@H]1NC[C@H](O)[C@@H](O)[C@@H]1O` [DUVOGLUSTAT], the pIC50 [1] was 3.69.
In the case of `CS(=O)(=O)Cc1c([N+](=O)[O-])cn2c1CCCCC2`, the inhibition [9] was “inactive” and the pIC50 [1] was less than 3.52.
Molecule `COC(=O)C(c1c([N+](=O)[O-])cn2c1CCCCC2)S(C)(=O)=O` (stereo not drawn) has a pIC50 [1] of 3.91.
